Test results reported in PubChem BioAssay (NCI).
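How tested: cells in 96-well plates exposed to compound for 48 hours at five concentrations. Definition used: TGI = concentration required for complete inhibition of growth.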

Key:
Assay in all cases: NCI-60 cell line screen, 48 h
MDA-MB-435 = test system: MDA-MB-435
UACC-257 melanoma = test system: UACC-257 melanoma
M14 melanoma = test system: M14 melanoma
OVCAR-4 ovarian = test system: OVCAR-4 ovarian
NCI/ADR-RES ovarian = test system: NCI/ADR-RES ovarian
786-0 renal = test system: 786-0 renal
SK-MEL-5 melanoma = test system: SK-MEL-5 melanoma
DU-145 prostate = test system: DU-145 prostate
NCI-H460 lung = test system: NCI-H460 lung
SNB-19 CNS = test system: SNB-19 CNS
SN12C renal = test system: SN12C renal
A498 renal = test system: A498 renal
HCC-2998 colon = test system: HCC-2998 colon
SK-OV-3 ovarian = test system: SK-OV-3 ovarian
SNB-75 CNS = test system: SNB-75 CNS
HCT-15 colon = test system: HCT-15 colon
HOP-92 NSCLC = test system: HOP-92 NSCLC
UACC-62 melanoma = test system: UACC-62 melanoma
U251 CNS = test system: U251 CNS
HOP-62 NSCLC = test system: HOP-62 NSCLC
SK-MEL-28 melanoma = test system: SK-MEL-28 melanoma
SK-MEL-2 melanoma = test system: SK-MEL-2 melanoma
MDA-MB-231 breast = test system: MDA-MB-231 breast
RXF 393 renal = test system: RXF 393 renal
KM12 colon = test system: KM12 colon
MDA-N = test system: MDA-N
BT-549 breast = test system: BT-549 breast
HL-60(TB) leukemia = test system: HL-60(TB) leukemia
SR leukemia = test system: SR leukemia
HS 578T breast = test system: HS 578T breast
UO-31 renal = test system: UO-31 renal
EKVX NSCLC = test system: EKVX NSCLC
SF-539 CNS = test system: SF-539 CNS
SF-295 CNS = test system: SF-295 CNS
K-562 leukemia = test system: K-562 leukemia
PC-3 prostate = test system: PC-3 prostate
OVCAR-5 ovarian = test system: OVCAR-5 ovarian
TK-10 renal = test system: TK-10 renal
OVCAR-3 ovarian = test system: OVCAR-3 ovarian
SF-268 CNS = test system: SF-268 CNS
NCI-H226 lung = test system: NCI-H226 lung
RPMI-8226 leukemia = test system: RPMI-8226 leukemia
MALME-3M melanoma = test system: MALME-3M melanoma
ACHN renal = test system: ACHN renal
MCF7 breast = test system: MCF7 breast
MOLT-4 leukemia = test system: MOLT-4 leukemia
OVCAR-8 ovarian = test system: OVCAR-8 ovarian
SW-620 colon = test system: SW-620 colon
CAKI-1 renal = test system: CAKI-1 renal
NCI-H23 lung = test system: NCI-H23 lung
T-47D breast = test system: T-47D breast
COLO 205 colon = test system: COLO 205 colon
HT29 colon = test system: HT29 colon
A549 NSCLC = test system: A549 NSCLC
IGROV1 ovarian = test system: IGROV1 ovarian
HCT-116 colon = test system: HCT-116 colon
CCRF-CEM leukemia = test system: CCRF-CEM leukemia
LOX IMVI melanoma = test system: LOX IMVI melanoma
NCI-H522 lung = test system: NCI-H522 lung

Compound: Cc1cc2[nH]c(Cl)c(/C=C3\C(=O)Nc4ccccc43)c2cc1O
- TGI (MDA-MB-435): 1.18 µM
- TGI (UACC-257 melanoma): 23.6 µM
- TGI (M14 melanoma): 17 µM
- TGI (OVCAR-4 ovarian): 25.9 µM
- TGI (NCI/ADR-RES ovarian): > 48.9 µM
- TGI (786-0 renal): > 37.8 µM
- TGI (SK-MEL-5 melanoma): 12.3 µM
- TGI (DU-145 prostate): 12.9 µM
- TGI (NCI-H460 lung): 15 µM
- TGI (SNB-19 CNS): 17.2 µM
- TGI (SN12C renal): 12.2 µM
- TGI (A498 renal): 16.1 µM
- TGI (HCC-2998 colon): 16 µM
- TGI (SK-OV-3 ovarian): 19 µM
- TGI (SNB-75 CNS): 16.5 µM
- TGI (HCT-15 colon): 23.3 µM
- TGI (HOP-92 NSCLC): 22.8 µM
- TGI (UACC-62 melanoma): 9.08 µM
- TGI (U251 CNS): 14.4 µM
- TGI (HOP-62 NSCLC): 25.9 µM
- TGI (SK-MEL-28 melanoma): 24.2 µM
- TGI (SK-MEL-2 melanoma): 12.9 µM
- TGI (MDA-MB-231 breast): 15.9 µM
- TGI (RXF 393 renal): 9.66 µM
- TGI (KM12 colon): 17.1 µM
- TGI (MDA-N): 1.97 µM
- TGI (BT-549 breast): 25 µM
- TGI (HL-60(TB) leukemia): 6.16 µM
- TGI (SR leukemia): 4.17 µM
- TGI (HS 578T breast): > 100 µM
- TGI (UO-31 renal): 17.8 µM
- TGI (EKVX NSCLC): 18 µM
- TGI (SF-539 CNS): 4.6 µM
- TGI (SF-295 CNS): 11.3 µM
- TGI (K-562 leukemia): 18.8 µM
- TGI (PC-3 prostate): 12.8 µM
- TGI (OVCAR-5 ovarian): 20.1 µM
- TGI (TK-10 renal): 23.5 µM
- TGI (OVCAR-3 ovarian): 26.7 µM
- TGI (SF-268 CNS): 18.2 µM
- TGI (NCI-H226 lung): 4.31 µM
- TGI (RPMI-8226 leukemia): 9.95 µM
- TGI (MALME-3M melanoma): 16.3 µM
- TGI (ACHN renal): 21.6 µM
- TGI (MCF7 breast): 16.5 µM
- TGI (MOLT-4 leukemia): 32.9 µM
- TGI (OVCAR-8 ovarian): 25.8 µM
- TGI (SW-620 colon): 30.7 µM
- TGI (CAKI-1 renal): 19.7 µM
- TGI (NCI-H23 lung): 10.5 µM
- TGI (T-47D breast): > 56.9 µM
- TGI (COLO 205 colon): 30.1 µM
- TGI (HT29 colon): 19.5 µM
- TGI (A549 NSCLC): 21.6 µM
- TGI (IGROV1 ovarian): 10.9 µM
- TGI (HCT-116 colon): > 36.7 µM
- TGI (CCRF-CEM leukemia): 9.32 µM
- TGI (LOX IMVI melanoma): 40 µM
- TGI (NCI-H522 lung): 4.66 µM

Compound: COc1ccc(/C=N/c2nc3cc4sc(/N=C/c5ccc(OC)cc5)nc4cc3s2)cc1
- TGI (MDA-MB-435): 99.5 µM
- TGI (UACC-257 melanoma): > 100 µM
- TGI (M14 melanoma): > 100 µM
- TGI (OVCAR-4 ovarian): > 100 µM
- TGI (NCI/ADR-RES ovarian): > 100 µM
- TGI (786-0 renal): > 100 µM
- TGI (SK-MEL-5 melanoma): > 100 µM
- TGI (DU-145 prostate): > 100 µM
- TGI (NCI-H460 lung): > 100 µM
- TGI (SNB-19 CNS): > 100 µM
- TGI (SN12C renal): > 100 µM
- TGI (A498 renal): > 100 µM
- TGI (HCC-2998 colon): 71.4 µM
- TGI (SK-OV-3 ovarian): > 100 µM
- TGI (SNB-75 CNS): > 100 µM
- TGI (HCT-15 colon): > 100 µM
- TGI (HOP-92 NSCLC): > 100 µM
- TGI (UACC-62 melanoma): > 100 µM
- TGI (U251 CNS): > 100 µM
- TGI (HOP-62 NSCLC): > 100 µM
- TGI (SK-MEL-28 melanoma): > 100 µM
- TGI (SK-MEL-2 melanoma): > 100 µM
- TGI (MDA-MB-231 breast): > 100 µM
- TGI (RXF 393 renal): > 100 µM
- TGI (KM12 colon): > 100 µM
- TGI (MDA-N): > 100 µM
- TGI (BT-549 breast): > 100 µM
- TGI (HL-60(TB) leukemia): > 100 µM
- TGI (SR leukemia): > 100 µM
- TGI (HS 578T breast): > 81.8 µM
- TGI (UO-31 renal): > 100 µM
- TGI (EKVX NSCLC): > 100 µM
- TGI (SF-539 CNS): > 100 µM
- TGI (SF-295 CNS): > 100 µM
- TGI (K-562 leukemia): > 100 µM
- TGI (PC-3 prostate): > 100 µM
- TGI (OVCAR-5 ovarian): > 100 µM
- TGI (TK-10 renal): > 94.8 µM
- TGI (OVCAR-3 ovarian): > 100 µM
- TGI (SF-268 CNS): > 100 µM
- TGI (NCI-H226 lung): > 77.8 µM
- TGI (RPMI-8226 leukemia): > 100 µM
- TGI (MALME-3M melanoma): > 100 µM
- TGI (ACHN renal): > 100 µM
- TGI (MCF7 breast): > 88.9 µM
- TGI (MOLT-4 leukemia): > 100 µM
- TGI (OVCAR-8 ovarian): > 100 µM
- TGI (SW-620 colon): > 100 µM
- TGI (CAKI-1 renal): > 100 µM
- TGI (NCI-H23 lung): 97.7 µM
- TGI (T-47D breast): > 100 µM
- TGI (COLO 205 colon): > 22.4 µM
- TGI (HT29 colon): > 100 µM
- TGI (A549 NSCLC): > 100 µM
- TGI (IGROV1 ovarian): > 100 µM
- TGI (HCT-116 colon): > 100 µM
- TGI (CCRF-CEM leukemia): > 45.2 µM
- TGI (LOX IMVI melanoma): > 100 µM
- TGI (NCI-H522 lung): > 52.7 µM
